pEC50, pIC50: −log10 of the molar value.

We go through 29 compounds from patent US20240409556A1, “BENZOPIPERAZINE AND RELATED ANALOGS FOR INHIBITING YAP/TAZ-TEAD” (Springworks Therapeutics, Inc., priority 2023, published 2024).

The subject of one assay is YAP/TAZ-TEAD transcription. Kind of assay: Reporter gene assay for measuring the inhibition of YAP/TAZ-TEAD transcription (TEAD-responsive element luciferase reporter in Hek293T cells). It is filed as cell-based. As to conditions: 24 hours incubation. In short, it runs like this:
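HEK293T cells transiently transfected with a TEAD-responsive luciferase reporter were exposed to compounds for 24 h at 37° C/5% CO2, then luminescence was read. Percent inhibition normalised to vehicle (0%) and positive-control inhibitor (100%); IC50 derived.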
(In a reporter assay the amount or activity of a reporter protein is the signal.)
Take `CC(=O)NCC1CN(c2ccc(C(F)(F)F)cc2)c2ccccc2O1` (single isomer, unassigned) [36-En1, (R)- or (S)-N-((4-(4-(trifluoromethyl)phenyl)-3,4-dihydro-2H-benzo[b][1,4]oxazin-2-yl)methyl)acetamide]: the pIC50 (as a rule, −log10 of the IC50, conventionally taken in molar units) is above 6.00.

The compound `CNS(=O)(=O)N1CCN2c3ccccc3N(c3ccc(C(F)(F)F)cc3)CC2C1` (single isomer, unassigned) [32-En2, (R)- or (S)-N-methyl-6-(4-(trifluoromethyl)phenyl)-1,2,4,4a,5,6-hexahydro-3H-pyrazino[1,2-a]quinoxaline-3-sulfonamide] had a pIC50 above 6.00.

`CC(=O)N1CC(=O)N2c3ccccc3N(c3ccc(C(F)(F)F)cc3)CC2C1` (stereo not drawn) [compound 79]: the pIC50 was above 6.00.

Consider `COc1ccc2c(n1)OC(CNC(C)=O)CN2c1ccc(C(F)(F)F)cc1` (single isomer, unassigned) [73-En2, (R)- or (S)-N-((6-methoxy-1-(4-(trifluoromethyl)phenyl)-2,3-dihydro-1H-pyrido[2,3-b][1,4]oxazin-3-yl)methyl)acetamide], for which the pIC50 is above 6.00.

`O=C(O)C1(F)CCN2c3ccccc3N(c3ccc(C(F)(F)F)cc3)CC2C1` [123-D2, (6aS,8S)- or (6aR,8S)- or (6aR,8R)- or (6aS,8R)-8-fluoro-5-(4-(trifluoromethyl)phenyl)-6,6a,7,8,9,10-hexahydro-5H-pyrido[1,2-a]quinoxaline-8-carboxylic acid] had a pIC50 above 6.00.

`CC(=O)NCC1CN(c2ccc(C(F)(F)F)cc2)c2cc(Cl)cnc2O1` (single isomer, unassigned) [75-En1, (R)- or (S)-N-((7-chloro-1-(4-(trifluoromethyl)phenyl)-2,3-dihydro-1H-pyrido[2,3-b][1,4]oxazin-3-yl)methyl)acetamide] had a pIC50 below 5.00.

The same assay, now with this note: Homo sapiens, HEK-293T, 24 h, 24 hours incubation.
`C=CC(=O)N1CCN2c3ccccc3N(c3ccc(C(F)(F)F)cc3)CC2C1` (stereo not drawn) [compound 14, 1-(6-(4-(trifluoromethyl)phenyl)-1,2,4,4a,5,6-hexahydro-3H-pyrazino[1,2-a]quinoxalin-3-yl)prop-2-en-1-one] showed a pIC50 above 6.00.

`CC(=O)NCC1CN(c2ccc(C(F)(F)F)cc2)c2ccccc2N1` (single isomer, unassigned) [34-En2, (R)- or (S)-N-((4-(4-(trifluoromethyl)phenyl)-1,2,3,4-tetrahydroquinoxalin-2-yl)methyl)acetamide] gave a pIC50 above 6.00.

The compound `Cc1nc[nH]c1CN1CCN(c2ccc(C(F)(F)F)cc2)c2ccccc21` [compound 66, 1-((4-methyl-1H-imidazol-5-yl)methyl)-4-(4-(trifluoromethyl)phenyl)-1,2,3,4-tetrahydroquinoxaline] gave a pIC50 above 6.00.

Regarding `CC(=O)N1CCN2C(=O)CN(c3ccc(C(F)(F)F)cc3)CC2C1` (stereo not drawn) [compound 44, 8-acetyl-2-(4-(trifluoromethyl)phenyl)octahydro-4H-pyrazino[1,2-a]pyrazin-4-one], the pIC50 was below 5.00.

`Cc1nnc(N2CCN3c4ccccc4N(c4ccc(C(F)(F)F)cc4)CC3C2)o1` (stereo not drawn) [compound 24, 2-methyl-5-(6-(4-(trifluoromethyl)phenyl)-1,2,4,4a,5,6-hexahydro-3H-pyrazino[1,2-a]quinoxalin-3-yl)-1,3,4-oxadiazole] had a negative logarithm of the IC50 (pIC50) below 5.00.

In turn, `CC(=O)NCC1CN(c2ccc(C(F)(F)F)cc2)c2ccccc2N1CC#N` (stereo not drawn) [compound 4, N-((1-(cyanomethyl)-4-(4-(trifluoromethyl)phenyl)-1,2,3,4-tetrahydroquinoxalin-2-yl)methyl)acetamide] gave a negative-log IC50 (pIC50) of 5.00 to 6.00.

`CC(=O)N[C@@H]1C[C@@H]2CN(c3ccc(C(F)(F)F)cc3)c3cccnc3N2C1` [70-D1, N-((6aR,8R)-5-(4-(trifluoromethyl)phenyl)-5,6,6a,7,8,9-hexahydropyrido[3,2-e]pyrrolo[1,2-a]pyrazin-8-yl)acetamide] had a pIC50 above 6.00.

`CC(=O)NCC1CN(c2ccc(C(F)(F)F)cc2)c2cccnc2S1(=O)=O` (stereo not drawn) [compound 58, N-((4,4-dioxido-1-(4-(trifluoromethyl)phenyl)-2,3-dihydro-1H-pyrido[2,3-b][1,4]thiazin-3-yl)methyl)acetamide] showed a pIC50 below 5.00.

`CS(=O)(=O)N1CCN2c3ccccc3N(c3ccc(C(F)(F)F)cc3)CC2C1` (stereo not drawn) [compound 16, 3-(methylsulfonyl)-6-(4-(trifluoromethyl)phenyl)-2,3,4,4a,5,6-hexahydro-1H-pyrazino[1,2-a]quinoxaline] gave a pIC50 above 6.00.

`O=C(O)C1CCN2c3c(Cl)cccc3N(c3ccc(C(F)(F)F)cc3)CC2C1` (stereo not drawn) [compound 105, (cis)- or (trans)-1-chloro-5-(4-(trifluoromethyl)phenyl)-6,6a,7,8,9,10-hexahydro-5H-pyrido[1,2-a]quinoxaline-8-carboxylic acid] showed a pIC50 above 6.00.

Regarding `FC(F)(F)c1ccc(N2CCN(Cc3ccno3)c3ccccc32)cc1` [compound 69, 5-((4-(4-(trifluoromethyl)phenyl)-3,4-dihydroquinoxalin-1(2H)-yl)methyl)isoxazole], the pIC50 is below 5.00.

Regarding `C=CC(=O)NCC1CN(c2ccc(C(F)(F)F)cc2)c2ccccc2N1S(C)(=O)=O` (stereo not drawn) [compound 23, N-((1-(methylsulfonyl)-4-(4-(trifluoromethyl)phenyl)-1,2,3,4-tetrahydroquinoxalin-2-yl)methyl)acrylamide], the negative logarithm of the IC50 (pIC50) is above 6.00.

On to `CC(=O)NCC1CN(c2ccc(C(F)(F)F)cc2)c2ccc(OC(F)F)nc2O1` (stereo not drawn) [compound 108, N-((6-(difluoromethoxy)-1-(4-(trifluoromethyl)phenyl)-2,3-dihydro-1H-pyrido[2,3-b][1,4]oxazin-3-yl)methyl)acetamide], for which the pIC50 was 5.00 to 6.00.

Turning to `CC1(C(=O)O)CCN2c3ccccc3N(c3ccc(C(F)(F)F)cc3)CC2C1` (stereo not drawn) [compound 114, (cis)- or (trans)-8-methyl-5-(4-(trifluoromethyl)phenyl)-6,6a,7,8,9,10-hexahydro-5H-pyrido[1,2-a]quinoxaline-8-carboxylic acid], the negative-log IC50 (pIC50) was above 6.00.

In turn, `C=CC(=O)N1CCN2CCN(c3ccc(C(F)(F)F)cc3)CC2C1` (stereo not drawn) [compound 21, 1-(8-(4-(trifluoromethyl)phenyl)octahydro-2H-pyrazino[1,2-a]pyrazin-2-yl)prop-2-en-1-one] showed a negative-log IC50 (pIC50) above 6.00.

Turning to `CC(=O)N1CCN2c3nccnc3N(c3ccc(C(F)(F)F)cc3)CC2C1` (stereo not drawn) [compound 40, 1-(5-(4-(trifluoromethyl)phenyl)-5,6,6a,7,9,10-hexahydro-8H-dipyrazino[1,2-a:2′,3′-e]pyrazin-8-yl)ethan-1-one], the pIC50 is above 6.00.

In turn, `FC(F)(F)c1ccc(N2CCN(Cc3nnc[nH]3)c3ccccc32)cc1` [compound 50, 1-((4H-1,2,4-triazol-3-yl)methyl)-4-(4-(trifluoromethyl)phenyl)-1,2,3,4-tetrahydroquinoxaline] had a negative-log IC50 (pIC50) above 6.00.

Turning to `CCc1ccc2c(n1)OC(CNC(C)=O)CN2c1ccc(C(F)(F)F)cc1` (stereo not drawn) [compound 82, N-((6-ethyl-1-(4-(trifluoromethyl)phenyl)-2,3-dihydro-1H-pyrido[2,3-b][1,4]oxazin-3-yl)methyl)acetamide], the pIC50 is above 6.00.

In turn, `CC(=O)NC[C@@H]1CN(c2ccc(C(F)(F)F)cc2)c2cccnc2N1` [39-En2, (R)-N-((1-(4-(trifluoromethyl)phenyl)-1,2,3,4-tetrahydropyrido[2,3-b]pyrazin-3-yl)methyl)acetamide] showed a pIC50 above 6.00.

Compound `CNC(=O)O[C@@H]1C[C@@H]2CN(c3ccc(C(F)(F)F)cc3)c3cccnc3N2C1` [compound 92, (6aR,8R)-5-(4-(trifluoromethyl)phenyl)-5,6,6a,7,8,9-hexahydropyrido[3,2-e]pyrrolo[1,2-a]pyrazin-8-yl methylcarbamate] showed a pIC50 above 6.00.

Consider `CC(=O)NCC1CN(c2ccc(C(F)(F)F)cc2)c2ccccc2N1CCO` (stereo not drawn) [compound 2, N-((1-(2-hydroxyethyl)-4-(4-(trifluoromethyl)phenyl)-1,2,3,4-tetrahydroquinoxalin-2-yl)methyl)acetamide], for which the pIC50 was below 5.00.

`O=C(O)C1CCN2c3ccc(Cl)cc3N(c3ccc(C(F)(F)F)cc3)CC2C1` (stereo not drawn) [compound 104, (cis)- or (trans)-3-chloro-5-(4-(trifluoromethyl)phenyl)-6,6a,7,8,9,10-hexahydro-5H-pyrido[1,2-a]quinoxaline-8-carboxylic acid] gave a negative-log IC50 (pIC50) of 5.00 to 6.00.

`O=C(c1cn[nH]c1)N1CCN(c2ccc(C(F)(F)F)cc2)c2ccccc21` [compound 74, (1H-pyrazol-4-yl)(4-(4-(trifluoromethyl)phenyl)-3,4-dihydroquinoxalin-1(2H)-yl)methanone] gave a pIC50 above 6.00.

For a further assay, the system named is NCI-H226 mesothelioma cell line. Kind of assay: Mesothelioma cell line proliferation assay, NCI-H226 (ATPlite). The assay is classed as cell-based. Conditions: NCI-H226 cells, 6 days with compound, cell viability by ATPlite. Here is the method:
Example 57: Activity of Compounds of the Disclosure in Mesothelioma Cell Line Proliferation Assays
Mesothelioma cell lines, NCI-H226 and NCI-H2052 (both sourced from the ATCC cell culture collection) were plated in 96-well plates (Corning® 96 Well White Polystyrene Microplate clear flat bottom, white polystyrene (TC-Treated)), at 1500 cells/well in full medium (RPMI 1640 ATCC modification with L-glutamine, HEPES, Phenol Red, Sodium Pyruvate, High glucose, Low sodium bicarbonate and 10% fetal bovine serum). Cells were incubated overnight at 37° C. in an incubator with 5% CO2. Then compounds, dissolved in DMSO, were added in dose-response. Cells were incubated with compound dilutions for another 6 days at 37° C. in an incubator with 5% CO2. Cell viability was quantitated using the ATPlite kit (Perkin-Elmer) and the luminescence was read-out using an Envision instrument (Perkin-Elmer). The amount of relative light units produced using the ATPlite kit was used to calculate percent of inhibition.
The activities of some example compounds are depicted in Table 4. The activity ranges A, B and C refer to EC50 values in the mesothelioma cell line proliferation assay as described as follows: “A”: EC50<1 μM; “B”: 1 μM≤EC50≤10 μM and “C”: EC50>10 μM; NT: not tested.
Background: ATP-based viability assays read luminescence as a measure of living cells.
Consider `CC(=O)NCC1CN(c2ccc(C(F)(F)F)cc2)c2ccccc2O1` (single isomer, unassigned) [36-En1, (R)- or (S)-N-((4-(4-(trifluoromethyl)phenyl)-3,4-dihydro-2H-benzo[b][1,4]oxazin-2-yl)methyl)acetamide], for which the negative-log EC50 (pEC50) (commonly −log10 of the EC50, conventionally taken in molar units) is above 6.00.

With `C=CC(=O)N1CCN2c3ccccc3N(c3ccc(C(F)(F)F)cc3)CC2C1` (stereo not drawn) [compound 14, 1-(6-(4-(trifluoromethyl)phenyl)-1,2,4,4a,5,6-hexahydro-3H-pyrazino[1,2-a]quinoxalin-3-yl)prop-2-en-1-one], the pEC50 was above 6.00.

In the case of `CC(=O)NCC1CN(c2ccc(C(F)(F)F)cc2)c2ccccc2N1` (single isomer, unassigned) [34-En2, (R)- or (S)-N-((4-(4-(trifluoromethyl)phenyl)-1,2,3,4-tetrahydroquinoxalin-2-yl)methyl)acetamide], the pEC50 is above 6.00.

With `CNS(=O)(=O)N1CCN2c3ccccc3N(c3ccc(C(F)(F)F)cc3)CC2C1` (single isomer, unassigned) [32-En2, (R)- or (S)-N-methyl-6-(4-(trifluoromethyl)phenyl)-1,2,4,4a,5,6-hexahydro-3H-pyrazino[1,2-a]quinoxaline-3-sulfonamide], the pEC50 is above 6.00.
